According to PubChem BioAssay AID1963829 (Molecular Pharmacology Branch, DTP, NCI, 2024):

Test system: 935938-334-R-J1-PDC complex spheroid viability
Assay: Anticancer human tumor 935938-334-R-J1-PDC patient-derived small intestine adenocarcinoma cell line growth inhibition [POLQ]
Conditions: for IC50: curve of first compound; for viability, T/C: stronger effect = lower value; active = viability on the fitted dose curve at most 10% of control; inactive = the rest
Protocol: Multicellular complex tumor spheroid response to Polymerase (POL) inhibitors (novobiocin, ART-558, RP6685) in combination with a variety of drugs and investigational agents in selected tumor cell lines
The POL inhibitors (novobiocin, ART-558, and RP6685) were evaluated both individually and in combination with standard of care and investigational anticancer small molecules within a complex spheroid model of solid tumors. . Complex spheroids include a stromal component modeled by human endothelial cells (HUVEC) and fibroblasts modeled by human mesenchymal stem cells (MSCs). The concentration ranges selected for each drug and investigational agent were based upon clinically achievable concentrations if the clinical Cmax of the agent was known.
Compounds. The drugs and investigational agents: novobiocin (NSC847541), ART-558 (NSC835418), RP-6685 (NSC848927), peposertib (NSC802822), ceralasertib (NSC780249), elimusertib (NSC800525), camonsertib (NSC841442), AZD-1390 (NSC803789), olaparib (NSC753686), talazoparib (NSC767125), rucaparib (NSC756644), sotorasib (NSC818433), MRTX-1133 (NSC836407), SN-38 (NSC673596), topotecan (NSC609699), epotoside (NSC141540), doxorubicin (NSC123127), gemcitabine (NSC613327), 5-fluorouracil (NSC19893), paclitaxel (NSC125973), vemurafenib (NSC761431), MSA-2 (NSC828583), SN-011 (NSC837082), adavosertib (NSC754352), prexasertib (NSC758257), carboplatin (NSC241240) and oxaliplatin (NSC266046), were obtained from the National Cancer Institute (NCI) Developmental Therapeutics Program Chemical Repository (21). The FDA-approved anticancer drug set is available from the Developmental Therapeutics Program at https://dtp.cancer.gov/organization/dscb/obtaining/. […] The stock solutions were prepared in dimethyl sulfoxide (DMSO, Sigma-Aldrich, St. Louis, MO, cat. D2650), except for the platinum compounds which were prepared in saline (Quality Biological, Gaithersburg, MD, cat. 114-055-101), at 800-fold the tested concentration and stored at -70 degrees C prior to their use. All drugs and investigational agents were tested over a range starting from a high concentration at or near the clinical Cmax and decreasing in half-log increments. If the clinical Cmax for an agent had not been determined, the highest concentration tested was 10 microM, except for SN-38, which was tested at a high concentration of 1 microM.
Cell Culture. All cells were maintained in an incubator at 37 degrees C and 5% CO2 with 95% humidity. The PDC lines were cultured according to standard operating procedures established by the NCI PDMR (https://pdmr.cancer.gov). Table 3 of the manuscript, lists the cell lines along with the number of the three cell types plated to form the mct-spheroids and media for tumor cell growth. After thawing, all PDC lines, except 997537-175-T-J1-PDC and 415267-285-R-J2-PDC, were cultured in Matrigel-coated flasks prepared with a working solution of 1X Ham's F-12 nutrient mix, without supplementation (Thermo Fisher Scientific, cat. 11765054), 100 U/mL penicillin-streptomycin (Thermo Fisher Scientific, cat. 15140122), and 2.5% Matrigel (Corning Inc., Corning, NY, cat. 354248) for the first three passages. The two PDC lines 997537-175-T-J1-PDC and 415267-285-R-J2-PDC were cultured on uncoated flasks. The 857933-349-R-J2-PDC line was cultured in 6C/Colon 1B media containing advanced DMEM/F-12 (Thermo Fisher Scientific, cat. 12634028), 10 mM HEPES (Thermo Fisher Scientific, cat. 15630080), 1X GlutaMAX supplement (Thermo Fisher Scientific, cat. 35050061), 0.1 mg/mL primocin (InvivoGen, San Diego, CA, cat. ant-pm-2), 10% defined fetal bovine serum, heat inactivated (HyClone Laboratories Inc., Logan, UT, cat. SH30070.03HI), 50% L-WRN conditioned media (ATCC, cat. CRL-3276), 1.25 mM N-Acetyl-L-cysteine (Sigma-Aldrich, cat. A9165), 10 mM nicotinamide (Sigma-Aldrich, cat. N0636), 1X B-27 supplement (Thermo Fisher Scientific, cat. 17504044), 1X N-2 supplement (Thermo Fisher Scientific, cat. […]

[1] = second compound 0.0316 µM, first compound 0.0316 µM
[2] = second compound 0.0316 µM, first compound 0.1 µM
[3] = second compound 0.0316 µM, first compound 0.316 µM
[4] = second compound 0.0316 µM, first compound 1 µM
[5] = second compound 0.0316 µM, first compound 3.16 µM
[6] = second compound 0.0316 µM, first compound 10 µM
[7] = second compound 0.1 µM, first compound 0.0316 µM
[8] = second compound 0.1 µM, first compound 0.1 µM
[9] = second compound 0.1 µM, first compound 0.316 µM
[10] = second compound 0.1 µM, first compound 1 µM
[11] = second compound 0.1 µM, first compound 3.16 µM
[12] = second compound 0.1 µM, first compound 10 µM
[13] = second compound 0.316 µM, first compound 0.0316 µM
[14] = second compound 0.316 µM, first compound 0.1 µM
[15] = second compound 0.316 µM, first compound 0.316 µM
[16] = second compound 0.316 µM, first compound 1 µM
[17] = second compound 0.316 µM, first compound 3.16 µM
[18] = second compound 0.316 µM, first compound 10 µM
[19] = second compound 1 µM, first compound 0.0316 µM
[20] = second compound 1 µM, first compound 0.1 µM
[21] = second compound 1 µM, first compound 0.316 µM
[22] = second compound 1 µM, first compound 1 µM
[23] = second compound 1 µM, first compound 3.16 µM
[24] = second compound 1 µM, first compound 10 µM
[25] = second compound 3.16 µM, first compound 0.0316 µM
[26] = second compound 3.16 µM, first compound 0.1 µM
[27] = second compound 3.16 µM, first compound 0.316 µM
[28] = second compound 3.16 µM, first compound 1 µM
[29] = second compound 3.16 µM, first compound 3.16 µM
[30] = second compound 3.16 µM, first compound 10 µM
[31] = second compound 10 µM, first compound 0.0316 µM
[32] = second compound 10 µM, first compound 0.1 µM
[33] = second compound 10 µM, first compound 0.316 µM
[34] = second compound 10 µM, first compound 1 µM
[35] = second compound 10 µM, first compound 3.16 µM
[36] = second compound 10 µM, first compound 10 µM
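Note: spheroids exposed to drugs for seven days before viability read.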
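Throughout, for viability, T/C: 100% = DMSO vehicle control wells.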

CC(=O)O[C@H]1C(=O)[C@@]2(C)[C@H]([C@H](OC(=O)c3ccccc3)[C@]3(O)C[C@H](OC(=O)[C@H](O)[C@@H](NC(=O)c4ccccc4)c4ccccc4)C(C)=C1C3(C)C)[C@]1(OC(C)=O)CO[C@@H]1C[C@@H]2O + COC1C(OC(N)=O)C(O)C(Oc2ccc3c(O)c(NC(=O)c4ccc(O)c(CC=C(C)C)c4)c(=O)oc3c2C)OC1(C)C
inactive: viability, T/C (second compound 0.0316 µM, first compound 0.00949 µM) 33.5% | viability, T/C (second compound 0.0316 µM, first compound 0.03 µM) 21.4% | viability, T/C (second compound 0.0316 µM, first compound 0.0949 µM) 14.8% | viability, T/C (second compound 0.0316 µM, first compound 0.3 µM) 16.4% | viability, T/C (second compound 0.0316 µM, first compound 0.949 µM) 16.6% | viability, T/C (second compound 0.0316 µM, first compound 3 µM) 19.3% | viability, T/C (second compound 0.1 µM, first compound 0.00949 µM) 35.7% | viability, T/C (second compound 0.1 µM, first compound 0.03 µM) 21.5% | viability, T/C (second compound 0.1 µM, first compound 0.0949 µM) 16.9% | viability, T/C (second compound 0.1 µM, first compound 0.3 µM) 17.5% | viability, T/C (second compound 0.1 µM, first compound 0.949 µM) 16.5% | viability, T/C (second compound 0.1 µM, first compound 3 µM) 18.1% | viability, T/C (second compound 0.316 µM, first compound 0.00949 µM) 37.9% | viability, T/C (second compound 0.316 µM, first compound 0.03 µM) 18.4% | viability, T/C (second compound 0.316 µM, first compound 0.0949 µM) 16.6% | viability, T/C (second compound 0.316 µM, first compound 0.3 µM) 13.8% | viability, T/C (second compound 0.316 µM, first compound 0.949 µM) 17.9% | viability, T/C (second compound 0.316 µM, first compound 3 µM) 18.2% | viability, T/C (second compound 1 µM, first compound 0.00949 µM) 34.6% | viability, T/C (second compound 1 µM, first compound 0.03 µM) 19.5% | viability, T/C (second compound 1 µM, first compound 0.0949 µM) 17.4% | viability, T/C (second compound 1 µM, first compound 0.3 µM) 17.2% | viability, T/C (second compound 1 µM, first compound 0.949 µM) 16.2% | viability, T/C (second compound 1 µM, first compound 3 µM) 16.6% | viability, T/C (second compound 3.16 µM, first compound 0.00949 µM) 32.8% | viability, T/C (second compound 3.16 µM, first compound 0.03 µM) 21.3% | viability, T/C (second compound 3.16 µM, first compound 0.0949 µM) 14.9% | viability, T/C (second compound 3.16 µM, first compound 0.3 µM) 18.2% | viability, T/C (second compound 3.16 µM, first compound 0.949 µM) 17.5% | viability, T/C (second compound 3.16 µM, first compound 3 µM) 18.4% | viability, T/C (second compound 10 µM, first compound 0.00949 µM) 36.6% | viability, T/C (second compound 10 µM, first compound 0.03 µM) 19.9% | viability, T/C (second compound 10 µM, first compound 0.0949 µM) 14.4% | viability, T/C (second compound 10 µM, first compound 0.3 µM) 16.6% | viability, T/C (second compound 10 µM, first compound 0.949 µM) 14.6% | viability, T/C (second compound 10 µM, first compound 3 µM) 16.4%
< 0.00949 µM: IC50 (second compound 0.0316 µM) | IC50 (second compound 0.1 µM) | IC50 (second compound 0.316 µM) | IC50 (second compound 1 µM) | IC50 (second compound 3.16 µM) | IC50 (second compound 10 µM)

COc1cc(C2c3cc4c(cc3C(OC3OC5COC(C)OC5C(O)C3O)C3COC(=O)C23)OCO4)cc(OC)c1O (stereo unspecified) + COC1C(OC(N)=O)C(O)C(Oc2ccc3c(O)c(NC(=O)c4ccc(O)c(CC=C(C)C)c4)c(=O)oc3c2C)OC1(C)C
0.706 µM: IC50 (second compound 10 µM)
inactive: viability, T/C [1] 97.7% | viability, T/C [2] 81.4% | viability, T/C [3] 70.2% | viability, T/C [4] 47.3% | viability, T/C [5] 39.5% | viability, T/C [6] 29.4% | viability, T/C [7] 105% | viability, T/C [8] 94% | viability, T/C [9] 67.3% | viability, T/C [10] 41.8% | viability, T/C [11] 30.8% | viability, T/C [12] 30.7% | viability, T/C [13] 134% | viability, T/C [14] 85.2% | viability, T/C [15] 80.4% | viability, T/C [16] 32.8% | viability, T/C [17] 27.5% | viability, T/C [18] 26% | viability, T/C [19] 105% | viability, T/C [20] 126% | viability, T/C [21] 62.2% | viability, T/C [22] 57.6% | viability, T/C [23] 26.7% | viability, T/C [24] 30.6% | viability, T/C [25] 78% | viability, T/C [26] 108% | viability, T/C [27] 83.3% | viability, T/C [28] 46.7% | viability, T/C [29] 28.9% | viability, T/C [30] 32.6% | viability, T/C [31] 96.9% | viability, T/C [32] 75.9% | viability, T/C [33] 68.7% | viability, T/C [34] 43.9% | viability, T/C [35] 27.4% | viability, T/C [36] 35.5%
1.04 µM: IC50 (second compound 0.0316 µM)
0.691 µM: IC50 (second compound 0.316 µM)
0.569 µM: IC50 (second compound 1 µM)
0.887 µM: IC50 (second compound 3.16 µM)
0.683 µM: IC50 (second compound 0.1 µM)

COc1cccc2c1C(=O)c1c(O)c3c(c(O)c1C2=O)CC(O)(C(=O)CO)CC3OC1CC(N)C(O)C(C)O1 (stereo unspecified) + COC1C(OC(N)=O)C(O)C(Oc2ccc3c(O)c(NC(=O)c4ccc(O)c(CC=C(C)C)c4)c(=O)oc3c2C)OC1(C)C
0.19 µM: IC50 (second compound 0.316 µM)
inactive: viability, T/C [1] 84.4% | viability, T/C [2] 93.7% | viability, T/C [3] 30.8% | viability, T/C [4] 19.2% | viability, T/C [5] 5.61% | viability, T/C [6] 7.78% | viability, T/C [7] 75.3% | viability, T/C [8] 98.3% | viability, T/C [9] 33.4% | viability, T/C [13] 67.5% | viability, T/C [14] 93.3% | viability, T/C [15] 25.9% | viability, T/C [16] 20.4% | viability, T/C [17] 6.24% | viability, T/C [18] 5.64% | viability, T/C [19] 66.8% | viability, T/C [20] 103% | viability, T/C [21] 36% | viability, T/C [22] 23.7% | viability, T/C [23] 6.64% | viability, T/C [24] 5.44% | viability, T/C [25] 52.7% | viability, T/C [26] 113% | viability, T/C [27] 32.1% | viability, T/C [28] 22.1% | viability, T/C [29] 6.52% | viability, T/C [30] 3.3% | viability, T/C [31] 61.5% | viability, T/C [32] 122% | viability, T/C [33] 29% | viability, T/C [34] 21.3% | viability, T/C [35] 5.32% | viability, T/C [36] 5.87%
0.221 µM: IC50 (second compound 0.1 µM)
active: viability, T/C [10] 20.2% | viability, T/C [11] 4.7% | viability, T/C [12] 4.37%
0.228 µM: IC50 (second compound 1 µM)
0.217 µM: IC50 (second compound 0.0316 µM)
0.211 µM: IC50 (second compound 3.16 µM)
0.216 µM: IC50 (second compound 10 µM)
